Patent US20100204157A1, “USE OF A PEPTIDE AS A THERAPEUTIC AGENT” (priority 2007, published 2010)
Where no end group is shown, it is not given here.

Legend:
CEM-SS cells = assay: Cytotoxicity in CEM-SS cells (MTS); details: peptide 10 micrograms per ml, MTS
HIV-1IIIB = assay: HIV-1 antiviral assay (CPE reduction, MTS); assay type: cell-based; details: peptide 10 micrograms per ml, 6 days post-infection
MRC-5 cells = details: human, 6 days
Procedure: (§1) For cytotxicity testing, MRC-5 cells were seeded at 2,500 cells/well in 96 well plates using growth medium. […] The following day, peptide were added and tested in duplicates. After a 6 days incubation period, cell viability was measured using CellTiter 96 Solution (Promega). Plates were incubated for additional 4 hours at 37° C.

MRSA = assay: Methicillin Resistant Staphylococcus Aureus (MRSA) assay; assay type: cell-based; details: MRSA growth; peptide 10 micrograms per ml; read visually
[1] = Cytotoxicity in CEM-SS cells (MTS); details: human
Pseudomonas aeruginosa = Pseudomonas aeruginosa assay; assay type: cell-based; details: Pseudomonas aeruginosa growth; peptide 10 micrograms per ml; read visually
Procedure: The antibacterial assay was conducted using clear, U-bottom 96-well microtiter plates. Cation-adjusted Mueller-Hinton Broth (MHB) was used for testing Pseudomonas aeruginosa. The peptide of the invention (0.1 ml of each—10 micrograms per ml—) were dispensed into wells in duplicate. Then the wells were inoculated with 5×10^5 CFU/mL Pseudomonas aeruginosa in 0.1 ml volume. For control purposes, each plate included 4 wells containing media without bacterial inoculum and 4 wells containing medium with inoculum but without peptide. The plates were incubated for 12 h at 37° C., and read visually 18-24 hours post-incubation. Growth control of Pseudomonas aeruginosa was examined first to determine adequacy of media preparations and growth conditions. Acceptable growth is defined as ≧2 mm wide button of cells at the bottom of each sample well, or obvious turbidity in the culture supernatant. Test wells were examined and scored as positive/negative for activity. A positive score for activity is based on complete inhibition of macroscopic growth of the test Pseudomonas aeruginosa.

[2] = Cytotoxicity in MRC-5 cells (CellTiter 96); details: human, MRC-5 cells (embryonal lung fibroblasts)
Procedure: as §1

[3] = Cell viability in HepG2-2.2.15 cells (dye uptake); assay type: cell-based; details: human, HepG2-2.2.15 cells (stable line containing HBV ayw genome), test peptide 10 micrograms per ml, dye uptake assay
Streptococcus pneumoniae = Streptococcus pneumoniae assay; assay type: cell-based; details: Streptococcus pneumoniae growth; peptide 10 micrograms per ml; read visually
Procedure: The antibacterial assay was conducted using clear, U-bottom 96-well microtiter plates. Cation-adjusted Mueller-Hinton Broth (MHB) was used for testing Streptococcus pneumoniae. The peptide of the invention (0.1 ml of each—10 micrograms per ml—) were dispensed into wells in duplicate. Then the wells were inoculated with 5×10^5 CFU/mL Streptococcus pneumoniae in 0.1 ml volume. For control purposes, each plate included 4 wells containing media without bacterial inoculum and 4 wells containing medium with inoculum but without peptide. The plates were incubated for 12 h at 37° C., and read visually 18-24 hours post-incubation. Growth control of Streptococcus pneumoniae was examined first to determine adequacy of media preparations and growth conditions. Acceptable growth is defined as ≧2 mm wide button of cells at the bottom of each sample well, or obvious turbidity in the culture supernatant. Test wells were examined and scored as positive/negative for activity. A positive score for activity is based on complete inhibition of macroscopic growth of the test Streptococcus pneumoniae.

HepG2-2.2.15 cells = assay: Cell viability in HepG2-2.2.15 cells (dye uptake); assay type: cell-based; details: test peptide 10 micrograms per ml, dye uptake assay

Cc1cn([C@H]2C[C@H](N=[N+]=[N-])[C@@H](CO)O2)c(=O)[nH]c1=O [AZT, reference compound]
% Cell Viability (CEM-SS cells): 97% | % CPE reduction in HIV-1 infected CEM-SS cells (HIV-1IIIB): 99%

Nc1nc(O)c2ncn(COC(CO)CO)c2n1 [Ganciclovir]
% Cell Viability (MRC-5 cells): 100%

FFVAP [Phe-Phe-Val-Ala-Pro]
% inhibition (MRSA): 0.0% | viability at 10 micrograms per ml [1]: 100% | % inhibition (Pseudomonas aeruginosa): 0.0% | viability at 144 h [2]: 100% | viability at 144 h, 10 micrograms per ml [3]: 98.1% | % inhibition (Streptococcus pneumoniae): 0.0%

Nc1ccn([C@@H]2CS[C@H](CO)O2)c(=O)n1 [3TC, Lamivudine, reference compound]
% Cell Viability (HepG2-2.2.15 cells): 95.8%
